The structures appear in SMILES notation.

A short description of data set [1]: Determining the dissolution rate using the true dissolution method (Sirius inForm, pressed disks). Format: physicochemical. The conditions noted are these: for dissolution rate: true dissolution disks d = 3 mm, 40 ml acetate-phosphate buffer pH 6.8, 100 rpm, UV/Vis; for times more soluble than crystalline form 2 of lesinurad free acid: ratio of dissolution rates measured under identical conditions. The procedure: The dissolution rate was measured using a Sirius inForm dissolution device. Disks for true dissolution with the surface area available for dissolution of 0.071 cm^2 (d = 0.3 cm) were prepared using a Specac press. The pressing time was 2x2 minutes at the pressing pressure of 100 kg. The dissolution was carried out in 40 ml of a solution at pH 6.8 (38 ml of 150mM NaCl + 2 ml of 150mM NaCl, 100mM CH3COONa, 100mM NaH2PO4), at the constant speed of 100 rpm. Samples were drawn at 5-second intervals and the concentration of dissolved lesinurad was determined by means of an integrated UV/Vis spectrophotometric probe in the wavelength range of 230-400 nm. Disks for measuring true dissolution (d = 3 mm) were produced from the prepared solid forms of lesinurad, i.e. free acid form 2 (reference form), tromethamine salt form I and diethylamine salt, and solid form of lesinurad with urea (form I), with the use of a press. The dissolution was carried out in 40 ml of an acetate-phosphate buffer at pH 6,8 (150mM NaCl, 5mM CH3COONa, 5mM NaH2PO4), at the constant stirring speed of 100 rpm. Samples were drawn at 5-second intervals and the concentration of dissolved lesinurad was determined by means of a UV/Vis spectrophotometer.

Data set [2] can be described thus: Chemical and polymorphic stability test of the crystalline form. Format: physicochemical. The procedure:
The prepared crystalline form I was subjected to tests from the point of view of chemical and polymorphic stability. […] The same results were also obtained after 3 days at 80°C.

As to `O=C(O)CSc1nnc(Br)n1-c1ccc(C2CC2)c2ccccc12` [lesinurad free acid (form 2), 2-(5-bromo-4-(1-cyclopropylnaphtalen-4-yl)-4H-1,2,4-triazol-3-ylthio)acetic acid, reference compound], the dissolution rate in data set [1] and in data set [1] (listed as crystalline form 2 of lesinurad free acid) was 0.42 mg/min/cm^2 each time.
In the case of `O=C(O)CSc1nnc(Br)n1-c1ccc(C2CC2)c2ccccc12` [lesinurad with diethylamine], the “times more soluble than crystalline form 2 of lesinurad free acid” value in data set [1] (listed as salt with diethylamine) is on record as ~50 times. Further, the dissolution rate in data set [1] and in data set [1] (listed as lesinurad with dimethylamine) was 21.58 mg/min/cm^2 throughout.
Turning to `O=C(O)CSc1nnc(Br)n1-c1ccc(C2CC2)c2ccccc12` [lesinurad with tromethamine (form I)], the “times more soluble than crystalline form 2 of lesinurad free acid” value in data set [1] (listed as solid form of lesinurad with tromethamine) was “about 17 times”. For the same molecule, the dissolution rate in data set [1] and in data set [1] (listed as lesinurad with tromethamine) was 7.44 mg/min/cm^2 each time. In addition, the entries for the “chemical and polymorphic stability” value in data set [2] (after 3 months at 40°C / 75% humidity) and in data set [2] (after 3 days at 80°C) were “did not show any signs of chemical degradation or transition to a different polymorphic form” and “same results”, respectively.

These data come from patent EP3372592A1, “SOLID FORMS OF LESINURAD AMINE SALTS” (Zentiva, k.s., priority 2017, dated 2018).
